# Source: patent US7371867B2, “Non-racemic trifluoroleucine, and methods of making and using” (Trustees of Tufts College, priority 2001, dated 2008)
smiles,measurement,value
"CC(C)(C)OC(=O)N[C@@H](CC(C(F)(F)F)C(F)(F)F)C(=O)O [Peptide 5, N-Boc-5,5,5,5′,5′,5′-(S)-Hexafluoroleucine]",melting point,85 to 91 °C
